Assay results reported in US7312330B2, “Bicycloheteroarylamine compounds as ion channel ligands and uses thereof” (Renovis, Inc., priority 2003, dated 2007).

Legend:
hVR1 = hVR1 (Homo sapiens, UniProt Q8NER1); experiment: Calcium imaging assay (Fura2) of VR1 antagonists, proton stimulation; format: cell-based; settings: HEK 293 cells expressing hVR1; for % Inhibition @ 1 μM: calcium ion influx induced by proton stimulation (pH 5.7); for IC50: calcium ion influx induced by proton stimulation
Excerpt: VR1 protein is a heat-gated cation channel that exchanges about 10 calcium ions for every sodium ion resulting in neuronal membrane depolarization and elevated intracellular calcium ion levels. Therefore the functional activity of compounds at the VR1 receptor may be determined by measuring changes in intracellular calcium levels in 293 cells expressing capsaicin-insensitive VR1 receptor variants. A dual wavelength ratiometric dye, Fura2, was used as an indicator of relative levels of calcium ions in a 96 well format using a bench top scanning fluorometer with integrated fluidics and temperature control (Flex Station, Molecular Devices).
A dual wavelength ratiometric dye, Fura2, was used as an indicator of relative levels of [Ca2+] in a 96 well format using a bench top scanning fluorometer with integrated fluidics and temperature control (Flex Station, Molecular Devices).
HEK 293 cells expressing hVR1 were grown on PDL coated 96-well black-walled plates, in the presence of a DMEM medium containing 5% Penstrep, 5% Glutamax, 200 ug/mL Hygromycin, 5 μg/mL Blasticide and 10% heat inactivated FBS. Prior to assay, the cells were loaded with 5 μg/mL Fura2 in normal saline solution at 37° C. for 40 minutes. Cells were then washed with normal saline to remove the dye.
The assay consists of two stages; a pre-treatment phase followed by a treatment phase. In the pretreatment phase, 50 μl of a compound solution was added to the cells. Immediately following, 50 μl of the test compound in the presence of agonist (a saline solution plus 10 mM citric acid bufferd to pH 5.7 with HCl) was added. Fura2 was excited at […] to indicate relative calcium concentration. Changes in wavelength measurements were made throughout the course of the experiment in 4 second intervals over a period of 3 minutes. The fluorescence ratio from the excitations at […] was recorded for analysis. Responses were measured as peak fluorescence ratio after compound-agonist addition minus baseline fluorescence ratio prior to treatment and were calculated for each concentration tested using the SoftMaxPro software. Data was expressed as percentage inhibition calculated as follows: […]
A dose response curve was then determined, from which the ID50 of each compound was calculated.

HsVR1 = biological target: T1, HsVR1 (Homo sapiens, UniProt Q8NER1); experiment: Two-electrode voltage clamp recording of capsaicin induced VR1 current in Xenopus oocytes; format: cell-based; settings: 250 nM capsaicin induced current; Xenopus oocytes injected with HsVR1 RNA; read-out: EPHYS IC50
T1 construct: expressed in transfected cells; host or cells: Xenopus oocytes injected with HsVR1 RNA
T1 sequence (Q8NER1 whole entry): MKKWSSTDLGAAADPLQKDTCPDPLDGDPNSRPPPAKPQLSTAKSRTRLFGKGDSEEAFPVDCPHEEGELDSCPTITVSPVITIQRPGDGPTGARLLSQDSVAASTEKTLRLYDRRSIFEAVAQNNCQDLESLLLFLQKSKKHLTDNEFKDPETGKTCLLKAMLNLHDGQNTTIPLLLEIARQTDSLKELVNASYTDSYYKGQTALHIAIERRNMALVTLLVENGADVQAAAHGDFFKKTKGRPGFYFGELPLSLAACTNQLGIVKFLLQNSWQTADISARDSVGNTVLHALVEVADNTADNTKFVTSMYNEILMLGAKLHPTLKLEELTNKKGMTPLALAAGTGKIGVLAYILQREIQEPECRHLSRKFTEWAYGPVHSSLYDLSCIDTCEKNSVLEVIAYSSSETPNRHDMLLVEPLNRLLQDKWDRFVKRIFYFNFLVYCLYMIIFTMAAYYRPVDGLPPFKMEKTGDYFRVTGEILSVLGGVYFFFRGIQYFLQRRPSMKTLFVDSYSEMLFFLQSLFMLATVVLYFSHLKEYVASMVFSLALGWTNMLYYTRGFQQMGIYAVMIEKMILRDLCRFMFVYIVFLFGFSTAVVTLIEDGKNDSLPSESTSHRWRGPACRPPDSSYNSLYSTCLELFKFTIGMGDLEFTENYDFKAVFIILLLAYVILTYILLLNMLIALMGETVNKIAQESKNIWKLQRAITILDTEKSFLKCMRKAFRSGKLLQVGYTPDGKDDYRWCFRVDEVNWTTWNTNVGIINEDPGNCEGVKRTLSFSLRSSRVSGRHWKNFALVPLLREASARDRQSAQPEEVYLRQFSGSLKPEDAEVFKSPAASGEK
Description: Xenopus ovaries obtained from NASCO were isolated by enzymatic dissociation using collagenase (Worthington, 2 mg/ml). Oocytes were then individually injected with HsVR1 RNA (0.5 μg/μl). Injected oocytes are stored in standard oocyte incubation solution, ND96, containing 96 mM NaCl, 2 mM KCl, 1 mM MgCl2, 0.3 mM CaCl2 and 50 µg/ml Gentamicin at 16° C. Capsaicin induced VR1 current is observed in oocytes 4-5 days after injection. Eight oocytes are placed in the recording chambers. Each oocyte is impaled by 2 glass electrodes having resistances of 0.5 to 1 MOhm when filled with a 3 M KCl solution. Electrode advancement and oocyte impalement are under software control (OpusXpress 1.1, Axon Instruments). VR1 expression in the oocytes is verified using 250 nM capsaicin. Test solution delivery to the oocytes during the experiment is also under software control. The solutions are prepared in 96 well plates and robotically pipetted into the oocyte recording chambers by an 8 channel pipetter. Oocytes are exposed to several 250 μl applications of 250 nM capsaicin until a stable current amplitude is obtained with each application. A set of 96 well plates containing the test solutions is prepared so that the sequence of solution application to the oocyte is as follows: 250 μls of 250 nM capsaicin is followed by a several minute wash with standard oocyte saline. 1 ml of the test compound is then added at a particular test concentration, followed immediately by 250 μl of the compound at the same concentration plus 250 nM capsaicin. The capsaicin induced VR1 current is recorded in the presence and absence of test compound for each concentration. The standard test concentrations range from 0.3 to 2000 nM. Quantitative measurement of VR1 current block was carried out by calculating the area under the curve described by the inward current. The resulting numbers for capsaicin induced currents in the presence of increasing compound concentration are normalized to the maximum current obtained. These points are then plotted on a logarithmic scale and fitted by a Hill function. The IC50 values for each compound tested were then calculated from the resulting Hill fit. All compounds that inhibited capsaicin induced current greater than 50% were considered positives.

Chain of hVR1 (Q8NER1 whole entry): as above

SMILES	IC50 (hVR1) [nM]	IC50 (HsVR1) [nM]	% Inhibition @ 1 μM (hVR1)
CS(=O)(=O)c1cccnc1N1CCc2c(ncnc2Nc2ccc(S(=O)(=O)C(F)(F)F)cc2)C1 [Example 23, 7-(3-Methanesulphonylpyridin-2-yl)-N-(4-(trifluoromethylsulphonyl)phenyl)-5,6,7,8-tetrahydropyrido[3,4-d]pyrimidin-4-amine]	101 to 500	101 to 500	++++ (compound exhibited 76% or greater inhibition of calcium ion influx induced by proton stimulation)
COCc1nc2c(c(Nc3ccc(C(F)(F)F)cc3)n1)CCN(c1ncccc1Cl)C2 [Example 35, 7-(3-Chloropyridin-2-yl)-N-(4-(trifluoromethyl)phenyl)-5,6,7,8-tetrahydro-2-(methoxymethyl)pyrido[3,4-d]pyrimidin-4-amine]	–	101 to 500	++++ (compound exhibited 76% or greater inhibition of calcium ion influx induced by proton stimulation)
Cc1cccc(N2CCc3c(ncnc3Nc3ccc(C(F)(F)F)cc3)C2)c1 [Example 46, 7-(m-Tolyl)-N-(4-(trifluoromethyl)phenyl)-5,6,7,8-tetrahydropyrido[3,4-d]pyrimidin-4-amine]	> 1000	501 to 1000	+ (compound exhibited 0-25% inhibition of calcium ion influx induced by proton stimulation)
FC(F)(F)c1ccc(Nc2nc(NCCN3CCOCC3)nc3c2CCN(c2ncccc2Cl)C3)cc1 [Example 33, 7-(3-Chloropyridin-2-yl)-N^4-(4-(trifluoromethyl)phenyl)-5,6,7,8-tetrahydro-N^2-(2-morpholinoethyl)pyrido[3,4-d]pyrimidine-2,4-diamine]	–	501 to 1000	+ (compound exhibited 0-25% inhibition of calcium ion influx induced by proton stimulation)
Clc1ccc(CNc2ncnc3c2CCN(c2ncccc2Cl)C3)cc1 [Example 41, N-(4-Chlorobenzyl)-7-(3-chloropyridin-2-yl)-5,6,7,8-tetrahydropyrido[3,4-d]pyrimidin-4-amine]	101 to 500	–	++ (compound exhibited 26-50% inhibition of calcium ion influx induced by proton stimulation)
c1ccc(CN2CCc3c(ncnc3Nc3cnc4ccccc4c3)C2)cc1 [Example 38, 7-Benzyl-5,6,7,8-tetrahydro-N-(quinolin-3-yl)pyrido[3,4-d]pyrimidin-4-amine]	101 to 500	–	–
CC(C)S(=O)(=O)c1cccnc1N1CCc2c(ncnc2Nc2ccc(C(F)(F)F)cc2)C1 [Example 16, N-(4-(Trifluoromethyl)phenyl)-5,6,7,8-tetrahydro-7-(3-(isopropylsulfonyl)pyridin-2-yl)pyrido[3,4-d]pyrimidin-4-amine]	> 1000	–	–

More lines, main results first:

IC50 (hVR1) [nM]	IC50 (HsVR1) [nM]	SMILES	% Inhibition @ 1 μM (hVR1)
101 to 500	101 to 500	CCS(=O)(=O)c1cccnc1N1CCc2c(ncnc2Nc2ccc(C(F)(F)F)cc2)C1 [Example 10, 7-(3-(Ethylsulfonyl)pyridin-2-yl)-N-(4-(trifluoromethyl)phenyl)-5,6,7,8-tetrahydropyrido[3,4-d]pyrimidin-4-amine]	+++ (compound exhibited 51-75% inhibition of calcium ion influx induced by proton stimulation)
101 to 500	< 100	CCOc1nc2c(c(Nc3ccc(C(F)(F)F)cc3)n1)CCN(c1ncccc1Cl)C2 [Example 48, 7-(3-Chloropyridin-2-yl)-2-ethoxy-N-(4-(trifluoromethyl)phenyl)-5,6,7,8-tetrahydropyrido[3,4-d]pyrimidin-4-amine]	++++ (compound exhibited 76% or greater inhibition of calcium ion influx induced by proton stimulation)
< 100	< 100	CSc1nc2c(c(Nc3ccc(C(C)(C)C)cc3)n1)CCN(c1ncccc1Cl)C2 [Example 28, N-(4-tert-Butylphenyl)-7-(3-chloropyridin-2-yl)-5,6,7,8-tetrahydro-2-(methylthio)pyrido[3,4-d]pyrimidin-4-amine]	++++ (compound exhibited 76% or greater inhibition of calcium ion influx induced by proton stimulation)
